{"source": "BindingDB's records for patent US20240083908", "about": "(Modulus Discovery, 2024)"}
{"target": "Poly(ADP-ribose) glycohydrolase (Homo sapiens, UniProt Q86W56)", "sequence (Q86W56 whole entry)": "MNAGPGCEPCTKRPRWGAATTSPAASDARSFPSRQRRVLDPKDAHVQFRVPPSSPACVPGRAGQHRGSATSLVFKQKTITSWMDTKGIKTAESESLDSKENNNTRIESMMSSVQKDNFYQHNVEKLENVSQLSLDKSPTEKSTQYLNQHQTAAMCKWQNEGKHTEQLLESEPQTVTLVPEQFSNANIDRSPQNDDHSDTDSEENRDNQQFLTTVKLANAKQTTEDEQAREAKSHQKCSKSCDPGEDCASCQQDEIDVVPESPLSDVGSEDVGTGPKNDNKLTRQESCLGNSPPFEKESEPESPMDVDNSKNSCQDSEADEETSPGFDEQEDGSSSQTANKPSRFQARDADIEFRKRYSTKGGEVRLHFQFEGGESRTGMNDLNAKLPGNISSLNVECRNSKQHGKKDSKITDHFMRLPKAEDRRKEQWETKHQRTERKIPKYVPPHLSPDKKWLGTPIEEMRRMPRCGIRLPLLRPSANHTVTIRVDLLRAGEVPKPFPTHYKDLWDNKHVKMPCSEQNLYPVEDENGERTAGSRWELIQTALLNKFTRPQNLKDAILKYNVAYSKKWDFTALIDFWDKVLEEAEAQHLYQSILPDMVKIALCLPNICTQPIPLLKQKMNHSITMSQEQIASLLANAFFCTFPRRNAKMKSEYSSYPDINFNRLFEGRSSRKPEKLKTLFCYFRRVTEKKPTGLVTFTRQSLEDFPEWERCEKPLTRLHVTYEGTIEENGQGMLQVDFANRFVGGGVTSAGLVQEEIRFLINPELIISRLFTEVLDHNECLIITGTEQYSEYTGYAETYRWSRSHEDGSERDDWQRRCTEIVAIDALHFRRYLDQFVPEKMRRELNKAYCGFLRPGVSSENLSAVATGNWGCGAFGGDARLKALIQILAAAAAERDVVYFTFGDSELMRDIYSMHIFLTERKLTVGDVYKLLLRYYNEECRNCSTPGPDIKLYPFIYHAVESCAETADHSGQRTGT", "assay": "PARG Activity Assay", "procedure": "PARG Activity Assay was performed in Streptavidin-coated 96-well plates. […] The substrate solution was added to the 96-well plate at the volume of 200 micro liter per well and incubated for 3 hours at room temperature. After the incubation, the substrate solution was discarded and assay plate was washed 4 times with 220 micro liter of PBS containing 0.1% Tween20 (PBST). […] The diluted enzyme solution was pre-incubated with compounds for 1 hour at room temperature in a 96-well plate and transferred 100 micro liter per well to the poly (ADP-ribose) substrate-coated assay plate. The plate was incubated for 1 hour at 25° C. and then washed 4 times with 220 micro liters of PBST. For the detection of non-digested poly (ADP-ribose) polymer on the plate, mouse anti-poly (ADP-ribose) antibody diluted with 0.2% BSA containing PBS was added 100 micro liters per well and incubated 1 hour at room temperature. Plate was washed 4 times with TBST and 100 micro liter of HRP-labeled anti-mouse Ig antibody was added to the wells. Plate was incubated for 30 minutes at room temperature and then washed 4 times with PBST. For the detection 100 micro liters of TMB substrate solution was added to the wells. After sufficient color development, reaction was stopped by addition of 50 micro liter of 0.2 M […].", "units": {"IC50": "nM"}}
{"smiles": "Cc1ncc(Cn2c(=O)[nH]c3sc(S(=O)(=O)NC4(C)CC4)cc3c2=O)s1", "note": "[US20240083908, Example 1]", "IC50": 22900}
{"smiles": "Cc1ncc(Cn2c(=O)c3cc(S(=O)(=O)NC4(C)CC4)sc3n(CCCN(C)C)c2=O)s1", "note": "[US20240083908, Example 8]", "IC50": 630}
{"smiles": "Cc1nc(C)c(Cn2c(=O)n(Cc3cnn(C)c3)c(=O)c3cc(S(=O)(=O)NC4(C)CC4)sc32)s1", "note": "[US20240083908, Example 25]", "IC50": 13}
{"smiles": "Cn1cc(Cn2c(=O)c3cc(S(=O)(=O)NC4(C)CC4)sc3n(Cc3ccc4c(c3)COC4)c2=O)cn1", "note": "[US20240083908, Example 28]", "IC50": 10}
{"smiles": "Cn1cc(Cn2c(=O)c3cc(S(=O)(=O)NC4(C)CC4)sc3n(Cc3ccc4cn[nH]c4c3)c2=O)cn1", "note": "[US20240083908, Example 36]", "IC50": 5.3}
{"smiles": "Cn1cc(Cn2c(=O)c3cc(S(=O)(=O)NC4(C)CC4)sc3n(Cc3ccc4cncn4c3)c2=O)cn1", "note": "[US20240083908, Example 40]", "IC50": 4.1}
{"smiles": "COc1ccc(Cn2c(=O)n(Cc3cnn(C)c3)c(=O)c3cc(S(=O)(=O)NC4(C)CC4)sc32)cc1", "note": "[US20240083908, Example 50]", "IC50": 40}
{"smiles": "Cn1cc(Cn2c(=O)c3cc(S(=O)(=O)NC4(C)CC4)sc3n(Cc3cnn(CCO)c3)c2=O)cn1", "note": "[US20240083908, Example 57]", "IC50": 20}
{"smiles": "COCc1cc2cc(Cn3c(=O)n(Cc4cnn(C)c4)c(=O)c4cc(S(=O)(=O)NC5(C)CC5)sc43)ccc2o1", "note": "[US20240083908, Example 63]", "IC50": 20}
{"smiles": "Cn1cc(Cn2c(=O)c3cc(S(=O)(=O)NC4(C)CC4)sc3n(Cc3ccc4oc(CO)cc4c3)c2=O)cn1", "note": "[US20240083908, Example 64]", "IC50": 15}
{"smiles": "Cn1cc(Cn2c(=O)c3cc(S(=O)(=O)NC4(C)CC4)sc3n(Cc3ccc(OC4CC4)cc3)c2=O)cn1", "note": "[US20240083908, Example 68]", "IC50": 63}
{"smiles": "CNCCN(C)c1ccc(Cn2c(=O)n(Cc3cnn(C)c3)c(=O)c3cc(S(=O)(=O)NC4(C)CC4)sc32)cc1F", "note": "[US20240083908, Example 77]", "IC50": 70}
{"smiles": "CN(C)CCN(C)c1ccc(Cn2c(=O)n(Cc3cnn(C)c3)c(=O)c3cc(S(=O)(=O)NC4(C)CC4)sc32)cc1F", "note": "[US20240083908, Example 78]", "IC50": 111}
{"smiles": "Cn1cc(Cn2c(=O)c3cc(S(=O)(=O)NC4(C)CC4)sc3n(C3CCNCC3)c2=O)cn1", "note": "[US20240083908, Example 91]", "IC50": 270}
{"smiles": "CC(=O)N1CCC(n2c(=O)n(Cc3cnn(C)c3)c(=O)c3cc(S(=O)(=O)NC4(C)CC4)sc32)CC1", "note": "[US20240083908, Example 92]", "IC50": 230}
{"smiles": "CNCCC(=O)N1CCC(n2c(=O)n(Cc3cnn(C)c3)c(=O)c3cc(S(=O)(=O)NC4(C)CC4)sc32)CC1", "note": "[US20240083908, Example 95]", "IC50": 320}
{"smiles": "CN1CCC(Cn2c(=O)n(Cc3cnn(C)c3)c(=O)c3cc(S(=O)(=O)NC4(C)CC4)sc32)CC1", "note": "[US20240083908, Example 98]", "IC50": 5940}
{"smiles": "Cn1cc(Cn2c(=O)c3cc(S(=O)(=O)NC4(C)CC4)sc3n(CC3CCN(CCO)CC3)c2=O)cn1", "note": "[US20240083908, Example 99]", "IC50": 500}
{"smiles": "Cn1cc(Cn2c(=O)c3cc(S(=O)(=O)NC4(C#N)CC4)sc3n(Cc3ccc4c(c3)COC4)c2=O)cn1", "note": "[US20240083908, Example 100]", "IC50": 42}
{"smiles": "Cc1nc(C)c(Cn2c(=O)n(Cc3cnn(CCO)c3)c(=O)c3cc(S(=O)(=O)NC4(C)CC4)sc32)s1", "note": "[US20240083908, Example 104b]", "IC50": 120}
{"smiles": "Cc1nc(C)c(Cn2c(=O)n(Cc3ccc(Cl)nc3)c(=O)c3cc(S(=O)(=O)NC4(C)CC4)sc32)s1", "note": "[US20240083908, Example 105]", "IC50": 50}
{"smiles": "CC1(NS(=O)(=O)c2cc3c(=O)n(Cc4nc5c(s4)CCCC5)c(=O)n(Cc4ccc5c(c4)COC5)c3s2)CC1", "note": "[US20240083908, Example 106]", "IC50": 990}
{"smiles": "Cc1ncc(Cn2c(=O)c3cc(S(=O)(=O)NC4(C)CC4)sc3n(Cc3cc(C(C)C)nn3C)c2=O)s1", "note": "[US20240083908, Example 107]", "IC50": 70}
{"smiles": "Cn1cc(Cn2c(=O)c3cc(S(=O)(=O)NC4(C)CC4)sc3n(Cc3cnc4c(c3)COC4)c2=O)cn1", "note": "[US20240083908, Example 108]", "IC50": 4}
{"smiles": "Cn1cc(Cn2c(=O)c3cc(S(=O)(=O)NC4(C)CC4)sc3n(Cc3cc4c(cc3F)COC4)c2=O)cn1", "note": "[US20240083908, Example 110]", "IC50": 17}
{"smiles": "COc1cc2c(cc1Cn1c(=O)n(Cc3cnn(C)c3)c(=O)c3cc(S(=O)(=O)NC4(C)CC4)sc31)COC2", "note": "[US20240083908, Example 111]", "IC50": 120}
{"smiles": "COc1cc(Cn2c(=O)n(Cc3cnn(C)c3)c(=O)c3cc(S(=O)(=O)NC4(C)CC4)sc32)ccc1F", "note": "[US20240083908, Example 121]", "IC50": 20}
{"smiles": "Cn1cc(Cn2c(=O)c3cc(S(=O)(=O)NC4(C)CC4)sc3n(Cc3ccc4c(c3)CC(=O)N4)c2=O)cn1", "note": "[US20240083908, Example 130]", "IC50": 3}
{"smiles": "Cn1cc(Cn2c(=O)c3cc(S(=O)(=O)NC4(C)CC4)sc3n(-c3ccc(F)cc3)c2=O)cn1", "note": "[US20240083908, Example 136]", "IC50": 860}
